Data on 4 compounds can be found in ChEMBL document CHEMBL1255553, “Unusual antimalarial meroditerpenes from tropical red macroalgae” (Bioorg Med Chem Lett, 2010).

The subject of the assay is Mycobacterium tuberculosis. The assay is described as follows: Antimicrobial activity against vancomycin-resistant Mycobacterium tuberculosis. In kind it is functional, organism-based.

Values after ≈ are worked out from the molar mass of the structure shown. Some results are limits rather than exact numbers.

The MIC is the lowest concentration that inhibits growth of the organism. Lower therefore signals a more susceptible organism. Usually IC50 stands for the concentration that gives 50% inhibition. Lower therefore signals greater potency.

In turn, `CC1=C2Cc3cc(ccc3O)C(=O)O[C@H](C(C)(C)Br)CC[C@](C)(O)[C@H](Br)CC[C@]2(C)[C@@H](Br)CC1` came in with a minimal inhibitory concentration (MIC) of 11 µM (≈ 7.32 µg/mL).

For `CC1=C2Cc3cc(ccc3O)C(=O)O[C@H](C(C)(C)O)CC[C@]3(C)O[C@H]3C/C=C(\C)C2CC1` (some centres undefined), the minimal inhibitory concentration (MIC) was more than 100 µM.

Turning to `CC(C)=CCC[C@@](C)(O)[C@@H]1CC/C(C)=C/CC/C(C)=C/Cc2cc(ccc2O)C(=O)O1` [CALLOPHYCOLIDE A], the MIC worked out at 12 µM (≈ 5.12 µg/mL).

Consider `Cc1cc(O)cc(CC[C@](C)(O)CCC[C@H](C)CCC[C@H](C)CCCC(C)C)c1O`, for which the IC50 was more than 100 µM.
